Laboratory results published in ChEMBL document CHEMBL1137170, “Synthesis, biophysical and biological evaluation of 3,6-bis-amidoacridines with extended 9-anilino substituents as potent G-quadruplex-binding telomerase inhibitors” (Bioorg Med Chem Lett, 2004).

Tests used:
[1] = target: Telomerase reverse transcriptase (Homo sapiens, UniProt O14746); assay: Effective concentration against telomerase by TRAP
Nucleic Acid = assay: Concentration required for G4-stabilisation in FRET assay; format: functional

Sequence of Telomerase reverse transcriptase (O14746 whole entry): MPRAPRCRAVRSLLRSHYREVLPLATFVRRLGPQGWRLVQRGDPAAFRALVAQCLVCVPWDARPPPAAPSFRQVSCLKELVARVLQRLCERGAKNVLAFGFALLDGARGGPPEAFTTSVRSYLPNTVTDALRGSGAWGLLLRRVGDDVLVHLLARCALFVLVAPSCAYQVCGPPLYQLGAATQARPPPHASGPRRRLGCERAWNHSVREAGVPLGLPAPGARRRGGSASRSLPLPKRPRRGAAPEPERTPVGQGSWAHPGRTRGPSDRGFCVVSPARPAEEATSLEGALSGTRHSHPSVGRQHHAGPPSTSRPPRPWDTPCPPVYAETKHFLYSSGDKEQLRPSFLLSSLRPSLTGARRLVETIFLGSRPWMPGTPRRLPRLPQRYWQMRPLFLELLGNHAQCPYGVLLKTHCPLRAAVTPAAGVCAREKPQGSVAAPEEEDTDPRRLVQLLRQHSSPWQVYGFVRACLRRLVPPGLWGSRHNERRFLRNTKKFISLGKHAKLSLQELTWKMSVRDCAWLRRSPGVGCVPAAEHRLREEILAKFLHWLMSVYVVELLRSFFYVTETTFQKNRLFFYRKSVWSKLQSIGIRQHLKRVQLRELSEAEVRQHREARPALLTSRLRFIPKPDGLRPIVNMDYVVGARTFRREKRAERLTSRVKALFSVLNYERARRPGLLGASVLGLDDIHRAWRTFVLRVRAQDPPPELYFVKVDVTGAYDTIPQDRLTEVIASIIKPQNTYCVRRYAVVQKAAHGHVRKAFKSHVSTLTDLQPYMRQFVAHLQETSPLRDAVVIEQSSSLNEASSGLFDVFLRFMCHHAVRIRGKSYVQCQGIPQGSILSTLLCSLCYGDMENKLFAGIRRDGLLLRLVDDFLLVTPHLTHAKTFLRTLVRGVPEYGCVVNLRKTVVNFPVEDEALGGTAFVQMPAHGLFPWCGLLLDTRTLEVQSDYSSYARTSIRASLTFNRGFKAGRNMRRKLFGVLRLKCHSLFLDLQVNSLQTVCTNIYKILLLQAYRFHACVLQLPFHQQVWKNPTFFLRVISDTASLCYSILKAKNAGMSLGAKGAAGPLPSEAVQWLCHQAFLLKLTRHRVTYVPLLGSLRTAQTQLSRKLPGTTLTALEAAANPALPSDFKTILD

Structure (SMILES)	EC50 [1] [nM]	Concentration (Nucleic Acid) [µM]
O=C(CCCCC(=O)N1CCCC1)Nc1ccc(Nc2c3ccc(NC(=O)CCN4CCCC4)cc3nc3cc(NC(=O)CCN4CCCC4)ccc23)cc1	318	0.72
O=C(CCCCC(=O)N1CCOCC1)Nc1ccc(Nc2c3ccc(NC(=O)CCN4CCCC4)cc3nc3cc(NC(=O)CCN4CCCC4)ccc23)cc1	267	0.54
CN(C)c1ccc(Nc2c3ccc(NC(=O)CCN4CCCC4)cc3nc3cc(NC(=O)CCN4CCCC4)ccc23)cc1	113	0.72
CN1CCN(C(=O)CCCCC(=O)Nc2ccc(Nc3c4ccc(NC(=O)CCN5CCCC5)cc4nc4cc(NC(=O)CCN5CCCC5)ccc34)cc2)CC1	165	0.59

More lines, main results first:

EC50 [1] [nM]	Structure (SMILES)	Concentration (Nucleic Acid) [µM]
80	CCN(CC)CCCCCCNC(=O)CCCCC(=O)Nc1ccc(Nc2c3ccc(NC(=O)CCN4CCCC4)cc3nc3cc(NC(=O)CCN4CCCC4)ccc23)cc1	0.49
98	CCN(CC)CCNC(=O)CCCCC(=O)Nc1ccc(Nc2c3ccc(NC(=O)CCN4CCCC4)cc3nc3cc(NC(=O)CCN4CCCC4)ccc23)cc1	0.46
